According to US8846694B2, “Pyrrolidone derivatives for use as MetAP-2 inhibitors” (Merck Patent GmbH, priority 2008, dated 2014):

target: MetAP-2 (Homo sapiens, UniProt P50579); experiment: MetAP-2 activity measurement (coupled enzymatic reactions, substrate Met-Arg-Ser, photometric at 450 nm); format: biochemical; conditions: read-out: IC50 enzyme (Inhibition of MetAP-2)
Summary of the method: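 Human MetAP-2 cleaves Met-Arg-Ser; the freed methionine is oxidized by L-amino acid oxidase, and the resulting H2O2 drives peroxidase oxidation of dianisidine, read continuously at 450 nm. Activity is taken as the slope in the visually linear region.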

Sequence of MetAP-2 (P50579 whole entry, species assumed): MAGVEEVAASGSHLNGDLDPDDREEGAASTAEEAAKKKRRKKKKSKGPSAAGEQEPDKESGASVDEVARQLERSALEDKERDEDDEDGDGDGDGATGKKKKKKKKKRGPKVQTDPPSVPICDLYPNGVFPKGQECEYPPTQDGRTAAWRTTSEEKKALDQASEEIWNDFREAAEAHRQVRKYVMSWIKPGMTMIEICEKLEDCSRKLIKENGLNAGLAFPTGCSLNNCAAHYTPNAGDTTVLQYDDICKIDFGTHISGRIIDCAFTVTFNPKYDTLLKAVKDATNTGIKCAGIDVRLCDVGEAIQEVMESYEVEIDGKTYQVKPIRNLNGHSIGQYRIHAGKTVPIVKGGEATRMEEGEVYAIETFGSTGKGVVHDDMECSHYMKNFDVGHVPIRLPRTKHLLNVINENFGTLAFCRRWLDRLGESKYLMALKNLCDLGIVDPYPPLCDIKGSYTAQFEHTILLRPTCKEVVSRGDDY

| IC50 | Compound |
| --- | --- |
| 0.01 to 1 µM | c1ccc2c(OC[C@H]3CCCN3c3ncnc4[nH]cnc34)nccc2c1 [A109, 1-[(R)-1-(9H-Purin-6-yl)pyrrolidin-2-yl-methoxy]isoquinoline] |
| 0.01 to 1 µM | CCCN1CCN(Cc2ccc(OC[C@H]3CCCN3c3ncnc4[nH]cnc34)c3ccccc23)CC1 [A110, 6-{(R)-2-[4-(4-Propylpiperazin-1-ylmethyl)-naphthalen-1-yloxymethyl]pyrrolidin-1-yl}-9H-purine] |
| 0.01 to 1 µM | CC(=O)N1CCN(Cc2ccc(OC[C@H]3CCCN3c3ncnc4[nH]cnc34)c3ccccc23)CC1 [A111, 1-(4-{4-[(R)-1-(9H-Purin-6-yl)pyrrolidin-2-yl-methoxy]naphthalen-1-ylmethyl}piperazin-1-yl)-ethanone] |
| 0.01 to 1 µM | c1ccc2c(OC[C@H]3CCCN3c3ncnc4[nH]cnc34)ccc(CN3CCN(C4CCCC4)CC3)c2c1 [A112, 6-{(R)-2-[4-(4-Cyclopentylpiperazin-1-yl-methyl)naphthalen-1-yloxymethyl]pyrrolidin-1-yl}-9H-purine] |
| 0.01 to 1 µM | COCCN1CCN(Cc2ccc(OC[C@H]3CCCN3c3ncnc4[nH]cnc34)c3ccccc23)CC1 [A113, 6-((R)-2-{4-[4-(2-Methoxyethyl)piperazin-1-yl-methyl]naphthalen-1-yloxymethyl}pyrrolidin-1-yl)-9H-purine] |
| 0.01 to 1 µM | OC[C@H]1CCCN1Cc1ccc(OC[C@H]2CCCN2c2ncnc3[nH]cnc23)c2ccccc12 [A114, ((R)-1-{4-[(R)-1-(9H-Purin-6-yl)pyrrolidin-2-yl-methoxy]naphthalen-1-ylmethyl}pyrrolidin-2-yl)-methanol] |
| 0.01 to 1 µM | c1cc(OC[C@H]2CCCN2c2ncnc3[nH]cnc23)c2cc(N3CCNCC3)ccc2c1 [A115, 6-[(R)-2-(7-Piperazin-1-ylnaphthalen-1-yl-oxymethyl)pyrrolidin-1-yl]-9H-purine] |
| 0.01 to 1 µM | CC(=O)N1CCN(c2ccc3cccc(OC[C@H]4CCCN4c4ncnc5[nH]cnc45)c3c2)CC1 [A116, 1-(4-{8-[(R)-1-(9H-Purin-6-yl)pyrrolidin-2-yl-methoxy]naphthalen-2-yl}piperazin-1-yl)-ethanone] |
| 0.01 to 1 µM | COc1ccc2cccc(OC[C@H]3CCCN3c3ncnc4[nH]cnc34)c2c1 [A118, 6-[(R)-2-(7-Methoxynaphthalen-1-yloxymethyl)-pyrrolidin-1-yl]-9H-purine] |
| 1 to 10 µM | O=C(OCc1ccccc1)N1CCc2cccc(OC[C@H]3CCCN3c3ncnc4[nH]cnc34)c2C1 [A120, Benzyl 8-[(R)-1-(9H-purin-6-yl)pyrrolidin-2-yl-methoxy]-3,4-dihydro-1H-isoquinoline-2-carboxylate] |
| 1 to 10 µM | O=C1CCc2cccc(OC[C@H]3CCCN3c3ncnc4[nH]cnc34)c2C1 [A121, 8-[(R)-1-(9H-Purin-6-yl)pyrrolidin-2-ylmethoxy]-3,4-dihydro-1H-naphthalen-2-one] |
| 0.01 to 1 µM | c1cc2c(c(OC[C@H]3CCCN3c3ncnc4[nH]cnc34)c1)CNCC2 [A122, 8-[(R)-1-(9H-Purin-6-yl)pyrrolidin-2-ylmethoxy]-1,2,3,4-tetrahydroisoquinoline] |
| 0.01 to 1 µM | FC(F)(F)c1ccc2nccc(OC[C@H]3CCCN3c3ncnc4[nH]cnc34)c2c1 [A123, 4-[(R)-1-(9H-Purin-6-yl)pyrrolidin-2-ylmethoxy]-6-trifluoromethylquinoline] |
| 1 to 10 µM | Oc1ccc2cccc(OC[C@H]3CCCN3c3ncnc4[nH]cnc34)c2c1 [A124, 8-[(R)-1-(9H-Purin-6-yl)pyrrolidin-2-yl-methoxy]naphthalen-2-ol] |
| 0.01 to 1 µM | N#CCCN1CCN(Cc2ccc(OC[C@H]3CCCN3c3ncnc4[nH]cnc34)c3ccccc23)CC1 [A128, 3-(4-{4-[(R)-1-(9H-Purin-6-yl)pyrrolidin-2-yl-methoxy]naphthalen-1-ylmethyl}piperazin-1-yl)-propionitrile] |
| 0.01 to 1 µM | O=C1c2cccc(OC[C@H]3CCCN3c3ncnc4[nH]cnc34)c2CC[C@@H]1Cc1cc[nH]n1 [A129, (R)-5-[(R)-1-(9H-Purin-6-yl)pyrrolidin-2-yl-methoxy]-2-(1H-pyrazol-3-ylmethyl)-3,4-dihydro-2H-naphthalen-1-one] |
| 0.01 to 1 µM | O=C1c2cccc(OC[C@H]3CCCN3c3ncnc4[nH]cnc34)c2CC[C@H]1Cc1cc[nH]n1 [A130, (S)-5-[(R)-1-(9H-Purin-6-yl)pyrrolidin-2-yl-methoxy]-2-(1H-pyrazol-3-ylmethyl)-3,4-dihydro-2H-naphthalen-1-one] |
| 0.01 to 1 µM | O=[N+]([O-])c1ccc2cccc(OC[C@H]3CCCN3c3ncnc4[nH]cnc34)c2c1 [A142, 6-[(R)-2-(7-Nitronaphthalen-1-yloxymethyl)-pyrrolidin-1-yl]-9H-purine] |
| 0.01 to 1 µM | Nc1ccc2cccc(OC[C@H]3CCCN3c3ncnc4[nH]cnc34)c2c1 [A144, 8-[(R)-1-(9H-Purin-6-yl)pyrrolidin-2-yl-methoxy]naphthalen-2-ylamine] |
| 1 to 10 µM | CN1CCN(c2ccc3cccc(OC[C@H]4CCCN4c4ncnc5[nH]cnc45)c3c2)CC1 [A145, 6-{(R)-2-[7-(4-Methylpiperazin-1-yl)naphthalen-1-yloxymethyl]pyrrolidin-1-yl}-9H-purine] |
| 0.01 to 1 µM | c1cc(OC[C@H]2CCCN2c2ncnc3[nH]cnc23)c2cc(N3CCOCC3)ccc2c1 [A146, 6-[(R)-2-(7-Morpholin-4-ylnaphthalen-1-yl-oxymethyl)pyrrolidin-1-yl]-9H-purine] |
| 1 to 10 µM | Oc1ccc(OC[C@H]2CCCN2c2ncnc3[nH]c(F)nc23)c2ccccc12 [A147, 4-[(R)-1-(8-Fluoro-9H-purin-6-yl)pyrrolidin-2-yl-methoxy]naphthalen-1-ol] |

Continued, molecule first:

| Compound | IC50 |
| --- | --- |
| Cc1ccc2nc(C(F)(F)F)cc(OC[C@H]3CCCN3c3ncnc4[nH]cnc34)c2c1 [A117, 6-Methyl-4-[(R)-1-(9H-purin-6-yl)pyrrolidin-2-yl-methoxy]-2-trifluoromethylquinoline] | 0.01 to 1 µM |
| CCCCOC1=Cc2c(cccc2OC[C@H]2CCCN2c2ncnc3[nH]cnc23)CC1 [A119, 6-[(R)-2-(7-Butoxy-5,6-dihydronaphthalen-1-yl-oxymethyl)pyrrolidin-1-yl]-9H-purine] | 1 to 10 µM |
| Cn1ncc(Cl)c1C[C@@H]1CCc2c(OC[C@H]3CCCN3c3ncnc4[nH]cnc34)cccc2C1=O [A125, (S)-2-(4-Chloro-2-methyl-2H-pyrazol-3-yl-methyl)-5-[(R)-1-(9H-purin-6-yl)pyrrolidin-2-yl-methoxy]-3,4-dihydro-2H-naphthalen-1-one] | 0.01 to 1 µM |
| Cn1ncc(Cl)c1C[C@H]1CCc2c(OC[C@H]3CCCN3c3ncnc4[nH]cnc34)cccc2C1=O [A126, (R)-2-(4-Chloro-2-methyl-2H-pyrazol-3-yl-methyl)-5-[(R)-1-(9H-purin-6-yl)pyrrolidin-2-yl-methoxy]-3,4-dihydro-2H-naphthalen-1-one] | 0.01 to 1 µM |
| CCN(CC)C(=O)c1cc2cccc(OC[C@H]3CCCN3c3ncnc4[nH]cnc34)c2cc1O [A127, N,N-Diethyl-3-hydroxy-5-[(R)-1-(9H-purin-6-yl)-pyrrolidin-2-ylmethoxy]naphthalene-2-carboxamide] | 0.01 to 1 µM |
| Oc1ccc2cccc(NC[C@H]3CCCN3c3ncnc4[nH]cnc34)c2c1 [A131, 8-{[(R)-1-(9H-Purin-6-yl)pyrrolidin-2-ylmethyl]-amino}naphthalen-2-ol] | > 10 µM |
| O=S(=O)(O)c1ccc2cccc(NC[C@H]3CCCN3c3ncnc4[nH]cnc34)c2c1 [A132, 8-{[(R)-1-(9H-Purin-6-yl)pyrrolidin-2-yimethyl]-amino}naphthalene-2-sulfonic acid] | > 10 µM |
| CC(C)(C)OC(=O)NCCCCCC(=O)N1CCc2cccc(OC[C@H]3CCCN3c3ncnc4[nH]cnc34)c2C1 [A133, tert-Butyl (6-oxo-6-{8-[(R)-1-(9H-purin-6-yl)-pyrrolidin-2-ylmethoxy]-3,4-dihydro-1H-isoquinolin-2-yl}hexyl)carbamate] | 1 to 10 µM |
| O=C1OCCC1CCn1cnc2c(N3CCC[C@@H]3COc3cccc4ccc(O)cc34)ncnc21 (stereo partly drawn) [A134, 3-(2-{6-[(R)-2-(7-Hydroxynaphthalen-1-yl-oxymethyl)pyrrolidin-1-yl]purin-9-yl}ethyl)-dihydrofuran-2-one] | 1 to 10 µM |
| NC(=O)CCn1cnc2c(N3CCC[C@@H]3COc3cccc4ccc(O)cc34)ncnc21 [A135, 3-{6-[(R)-2-(7-Hydroxynaphthalen-1-yl-oxymethyl)pyrrolidin-1-yl]purin-9-yl}-propionamide] | > 10 µM |
| CCOC(=O)CCCCn1cnc2c(N3CCC[C@@H]3COc3cccc4ccc(O)cc34)ncnc21 [A136, Ethyl 5-{6-[(R)-2-(7-hydroxynaphthalen-1-yl-oxymethyl)pyrrolidin-1-yl]purin-9-yl}pentanoate] | > 10 µM |
| FC(F)(F)Oc1ccc2nccc(OC[C@H]3CCCN3c3ncnc4[nH]cnc34)c2c1 [A137, 4-[(R)-1-(9H-Purin-6-yl)pyrrolidin-2-ylmethoxy]-6-trifluoromethoxyquinoline] | 0.01 to 1 µM |
| NCCCCCC(=O)N1CCc2cccc(OC[C@H]3CCCN3c3ncnc4[nH]cnc34)c2C1 [A138, 6-Amino-1-{8-[(R)-1-(9H-purin-6-yl)pyrrolidin-2-ylmethoxy]-3,4-dihydro-1H-isoquinolin-2-yl}-hexan-1-one] | 0.01 to 1 µM |
| CCCCOC(=O)c1cc(OC[C@H]2CCCN2c2ncnc3[nH]cnc23)c2cc(F)ccc2n1 [A139, Butyl 6-fluoro-4-[(R)-1-(9H-purin-6-yl)pyrrolidin-2-ylmethoxy]quinoline-2-carboxylate] | 0.01 to 1 µM |
| [O-][n+]1c(C(F)(F)F)cc(OC[C@H]2CCCN2c2ncnc3[nH]cnc23)c2cc(F)ccc21 [A140, 6-Fluoro-4-[(R)-1-(9H-purin-6-yl)pyrrolidin-2-yl-methoxy]-2-trifluoromethylquinoline 1-oxide] | 0.01 to 1 µM |
| O=C(O)c1cc(OC[C@H]2CCCN2c2ncnc3[nH]cnc23)c2cc(F)ccc2n1 [A141, 6-Fluoro-4-[(R)-1-(9H-purin-6-yl)pyrrolidin-2-yl-methoxy]quinoline-2-carboxylic acid] | 0.01 to 1 µM |
| CNc1ccccc1C(=O)OC[C@H]1CCCN1c1ncnc2[nH]cnc12 [A143, (R)-1-(9H-purin-6-yl)pyrrolidin-2-ylmethyl 2-methylaminobenzoate] | 0.01 to 1 µM |
